Assay results reported in patent publication US11779015B2, “Pesticide compositions” (FUNDACIÓ CENTRE DE REGULACIÓ GENÒMICA, priority 2017, dated 2023).

How the values were obtained:
[1] = test system: D. santomea larvae; assay: Fly larva chemotaxis assay; type: in vivo; settings: 1% vol in paraffin oil, 5 minutes
Method: (§1) Larvae were exposed to 1% vol solution of (E)-2-hexenal or methyl benzoate in paraffin oil loaded onto the lid of a petri dish. Their movement was tracked for 5 minutes. A preference index was quantified as the fraction of time larvae spent in a zone around the odour sources. A population of 15 larvae were used per trial and they were placed in the centre of the petri dish at the start of the experiment. The average distance of the larvae to the odour sources was also quantified over time. The results of this analysis are shown on FIG. 9, for each of the conditions where a VOC of the invention was used. A total of 10 trials were performed for each condition, i.e. for each VOC and fly species, and 30 trials were performed for a control condition, for which only the solvent paraffin oil was applied.
(§2) Behavioural experiments were performed with third instar foraging larvae. A group of approximately 15 larvae per trial was placed in a Petri dish and monitored during 5 minutes for their chemotactic behaviour, as larvae were exposed to an odour gradient in gas phase emanating from the two odour sources on the lid of the Petri dish. […] Larval behaviour was tracked using a video camera and the data derived was then analysed in Matlab (MathWorks) using custom-made programs to calculate additional time-series variables, and to determine the preference index and the distance of larvae to the source.

[2] = test system: D. suzukii; assay: Infestation of pre-odour-treated blueberries, emergence of adult flies; type: in vivo, Drosophila suzukii; settings: 48 hours with adult flies, counted after 14 days
Method: Adult mixed female and male flies 20 (in the experiments below, D. suzukii flies) are placed in a cylindrical cage 60a with mesh roofing 80 for ventilation. Fruits 40 (in the experiments below 8 blueberries were used) are placed into a petri dish bottom 60b at the bottom of the cage 60a.
The blueberries were treated with (E)-2-hexenal and then exposed to flies. The impact of 1% vol, 5% vol and 10% vol aqueous emulsions of (E)-2-hexenal (obtained by dissolving the VOC in deionized water (DI) containing 1% (v/v) Tween 20 hydrophilic emulsifier) on egg-laying and the survival and development of larvae in pre-treated blueberries were compared to water-treated controls. In particular, the number of flies emerging after 14 days at ambient temperature was counted, following 48 hours of incubation of the treated blueberries with adult flies. The results of this analysis are shown on FIG. 6B. […] Significance was assessed by one-way ANOVA followed by Bonferroni correction at p≤0.05 and post-hoc two-sample t-test.
Eight ripe blueberries were dipped into 10 mL of a 1%, 5% or 10% aqueous emulsion of (E)-2-hexenal or deionised water as a control and left to air dry. They were then placed in a Petri dish at the bottom of a cylindrical plastic fly cage (∅=5.5 cm, h=7.5 cm), together with 20 mixed (10 females, 10 males) adult D. suzukii flies. The flies were exposed to the odour-treated blueberries during 48 hours at ambient room temperature conditions, after which they were removed and discarded. The blueberries were then transferred into an empty fly vial with cotton lids, and after 14 days at ambient room temperature conditions, the emergence of adult D. suzukii was examined by counting the number of flies. The assay was repeated 5 times.

[3] = test system: D. suzukii larvae; assay: Survival and development of larvae in pre-infested blueberries; type: in vivo, Drosophila suzukii; settings: counted after 12 days
Method: To investigate the impact of (E)-2-hexenal on the emergence of D. suzukii, eight ripe, untreated blueberries were placed in the cage 60a together with adult D. suzukii flies for 4 days. All flies were then removed and discarded and half of the pre-infested blueberries was dipped into 10 mL of a 1%, 5% or 10% E-2-hexenal aqueous emulsion (as above), while the other half was dipped in 10 mL deionized water as a control. Survival of D. suzukii larvae was measured by counting the number of adult flies that emerged from the odour-treated blueberries versus the control condition after 12 days.
The percentage of adult fly emergence under the treated and untreated conditions relative to the sum of all flies that emerged under both conditions in each assay was calculated. The results of these experiments are shown on FIG. 6C (1% vol (E)-2-hexenal), FIG. 6D (5% vol. (E)-2-hexenal), and FIG. 6E (10% vol. (E)-2-hexenal).
Eight ripe, untreated blueberries were placed in a Petri dish at the bottom of a cylindrical plastic fly cage together with 20 mixed (10 females, 10 males) adult D. suzukii flies for 4 days. All flies were then removed and discarded and half of the pre-infested blueberries was dipped into 10 mL of a 1%, 5% or 10% (E)-2-hexenal aqueous emulsion, while the other half was dipped in 10 mL deionised water as a control. The blueberries were then left to air dry, then placed in empty fly vials with cotton lids and left at ambient room temperature conditions. Survival of D. suzukii larvae was measured by counting the number of adult flies that emerged from the odour-treated blueberries versus the control condition after 12 days. The assay was repeated 5 times.

[4] = test system: larvae of the other species of the Drosophila melanogaster species group; assay: Fly larva chemotaxis assay; type: in vivo, Drosophila spp.; settings: 1% vol in paraffin oil, 5 minutes
Method: as §1, §2

[5] = test system: honeybees (Apis mellifera); assay: Airborne toxicity on honeybees in the petri dish assay; type: in vivo; settings: applied concentration 4%, paraffin oil, 24 hours

SMILES	larval chemotactic response [1]	fly emergence from pre-treated blueberries versus untreated ([2]; 1% aqueous emulsion)	fly emergence from pre-treated blueberries versus untreated ([2]; 5% aqueous emulsion)	fly emergence from pre-treated blueberries versus untreated ([2]; 10% aqueous emulsion)	adult fly emergence from pre-infested blueberries versus control ([3]; 1% vol aqueous emulsion dip)	adult fly emergence from pre-infested blueberries versus control ([3]; 5% vol aqueous emulsion dip)	adult fly emergence from pre-infested blueberries versus control ([3]; 10% vol aqueous emulsion dip)	larval chemotactic response [4]	Percentage of dead honey bee adults (%) [5] [%]
COC(=O)c1ccccc1 [methyl benzoate, Methyl benzoate]	strongly attractive								
CCC/C=C/C=O [(E)-2-hexenal]		not significantly different from untreated berries	significant reduction of fly emergence	significant reduction of fly emergence	not statistically significantly (NS) different from the control condition	does not result in any adult fly emergence	does not result in any adult fly emergence	attractive chemotactic responses	0
